Experimental data from ChEMBL document CHEMBL1144803, “Nardosinanols A-I and lemnafricanol, sesquiterpenes from several soft corals, Lemnalia sp., Paralemnalia clavata, Lemnalia africana, and Rhytisma fulvum fulvum” (J Nat Prod, 2008).

Assay: Toxicity in brine shrimp
Assay type: organism-based
Details: artemia, in vivo

CC(=O)O[C@H]1C[C@H](O)[C@@]23C(=O)[C@@H](C)[C@@H]1[C@]2(C)[C@@H](C)CC[C@@H]3O [LEMNAFRICANOL]
LC50: 320 nM

C[C@@H](C=O)[C@H]1C(=O)CCC2=C[C@@H](O)C[C@H](C)[C@]21C [NARDOSINANOL C]
LC50: 4000 nM

CC(=O)[C@H]1C[C@H](O)C2=CCC[C@H](C)[C@@]2(C)[C@H]1C(C)=O [NARDOSINANOL G]
LC50: 350 nM
